Assay results published in patent US20240300945A1, “CLY SERIES COMPOUND, PREPARATION METHOD THEREFOR AND USE THEREOF IN PREPARATION OF DRUGS” (NANJING WELLBEST PHARMACEUTICAL CO., LTD, priority 2021, published 2024).

Columns and labels:
[1] = system: skin hair follicles and sebaceous glands of mice; experiment: Mouse hair loss model: histopathological grading of skin hair follicles and sebaceous glands; type: in vivo, C57BL/6 mice; conditions: external 2% tincture, 60 days, 6 mice per group; for number of mice with hair follicle and sebaceous gland grade +++: grade +++ (most severe); for number of mice with hair follicle and sebaceous gland grade ±: grade ± (lesions limited); for number of mice with hair follicle and sebaceous gland grade −: grade − (normal structure)
Source text: The experimental mice were divided into the negative control group (external use of 60% ethanol), model group (external use of 60% ethanol), positive control group (external use of 2% minoxidil tincture), CLY-1 external treatment group (external use of 2% CLY-1 tincture), CLY-2 external treatment group (external use of 2% CLY-2 tincture), CLY-3 external treatment group (external use of 2% CLY-3 tincture), CLY-4 external treatment group (external use of 2% CLY-4 tincture), CLY-8 external treatment group (external use of 2% CLY-8 tincture) CLY-11 external treatment group (2% CLY-11 tincture), CLY-19 external treatment group (2% CLY-19 tincture), CLY-36 external treatment group (2% CLY-36 tincture), and CLY-39 external treatment group (2% CLY-39 tincture). There were 6 animals in each group, half male and half female. An area of 4 cm×5 cm from the back of experimental mice with hair removed was selected, and the hair removal area was painted yellow with 3% picric acid solution to determine the observation area of the hair removal experiment. In addition to the negative control group, mice in other groups were injected subcutaneously with testosterone propionate injection [8 ml/(kg·d)] at the back of the neck, once a day, for 60 consecutive days, to establish the model of androgenic alopecia (AGA). At the same time of modeling, the rats in the corresponding drug group were smeared with drugs on the observation area of the back at the rate of 1 ml/(piece·time), twice a day, with an interval of 2 hours. The normal control group and the model control group were smeared with the excipient (60% ethanol solution), 1 ml/(one time), twice a day, for 60 consecutive days.
10 hairs were extracted from the observation area on the back of each mouse every 15 days after administration, and the hair length was measured with a vernier caliper. After 60 days of administration, the skin of the experimental observation area was taken for routine tissue dehydration, paraffin embedding, HE staining, and light microscopy to observe the histopathological changes of mouse skin hair follicles and sebaceous glands. Semi-quantitative analysis was performed for each group. The grading criteria are as follows: the normal structure of dermal tissue cells, subcutaneous hair follicles, and sebaceous glands is marked as […]: no hyperplasia of dermal tissue is found, the lesions of hair follicles and sebaceous glands are limited, and no inflammation is found under the skin is marked as “+”: no obvious hyperplasia of dermal tissue is found, and the follicles are obviously cystic. No obvious hyperplasia of sebaceous glands is found, and no inflammation is found under the skin is marked as “+”: the dermal tissue has segmental hyperplasia, which is not obvious, A small number of hair follicles have cystic changes, and the sebaceous glands have mild hyperplasia and hypertrophy. There is no obvious inflammation under the skin, which is marked as “++”: the dermal tissue cells of the skin have different degrees of segmental hyperplasia, and some hair follicles have cystic changes, showing uneven size of hair follicles, and no cells around. The sebaceous glands have hyperplasia, and the nuclei in the proliferative glands are few. A few subcutaneous mild inflammatory hyperplasia is marked as “+++”.

skin melanocytes = experiment: Chloasma model of guinea pig: pathomorphological observation of skin melanocytes; type: in vivo; parameters: Average gray level (melanocyte depth): scale not given here; conditions: 0.25% cream once a day, 30 days
Source text: According to the body weight, they were randomly divided into the model control group (applied cream matrix), blank control group (applied cream matrix), CLY-1 treatment group (applied 0.25% CLY-1 cream on the skin), CLY-2 treatment group (0.25% CLY-2 cream on the skin), CLY-3 treatment group (0.25% CLY-3 cream on the skin), CLY-4 treatment group (0.25% CLY-4 cream on the skin), CLY-5 treatment group (0.25% CLY-5 cream on the skin) CLY-8 treatment group (0.25% CLY-8 cream on the skin), CLY-11 treatment group (0.25% CLY-11 cream on the skin), CLY-19 treatment group (0.25% CLY-19 cream on the skin), CLY-36 treatment group (0.25% CLY-36 cream on the skin), CLY-39 treatment group (0.25% CLY-39 cream on the skin), positive treatment group (0.25% arbutin cream on the skin), 6 in each group. In addition to the blank control group, all guinea pigs in the other groups were injected with 20 mg/ml progesterone injection (7.5 mg/kg) into the muscle at the root of the hind leg, once a day, for 30 consecutive days to establish the chloasma model. […] After modeling, the guinea pigs in the model control group, blank control group, each CLY series treatment group, and positive treatment group were treated with corresponding cream on the back for intervention, once a day, for 30 consecutive days.
Took 1 piece of spare skin tissue from each of all guinea pigs, about 2 cm×1 cm, 10% paraformaldehyde fixation, pathological tissue detection, immunohistochemical staining, observation of melanocyte staining and number, and judgment of positive cells according to the literature: none, 0 point<15%, 0.5 points<30%, 1 point; >30%, 2 points. Observed 5 visual fields in each slice, found out the positive target with brown reaction in the cytoplasm of skin epidermis and accessory epithelial cells, and used BX50F4 Beihang pathological image analysis system for quantitative analysis to obtain the average area, the ratio of target area to statistical field area (areal density), the ratio of target number to statistical field area (number density), the average gray level, the average optical density and the integrated optical density of each guinea pig's 5 visual fields of melanin positive target.
SPSS16.0 software was used for statistics. The measurement data were expressed by mean±standard deviation (x±s). The comparison between multiple groups was performed by one-way ANOVA, and the comparison between groups was performed by t-test. P<0.05 was statistically significant.

CN1CCC[C@@H](N(C(=O)c2ccc(-n3nnc4cccnc43)cc2)c2ncccc2Cl)C1 [CLY-1, (R)-4-(3H-[1,2,3]triazolo[4,5-b]pyridin-3-yl)-N-(3-chloropyridin-2-yl)-N-(1-methylpiperidin-3-yl)benzamide]
number of mice with hair follicle and sebaceous gland grade +++ [1]: 0
number of mice with hair follicle and sebaceous gland grade ++ [1]: 1
number of mice with hair follicle and sebaceous gland grade + [1]: 2
number of mice with hair follicle and sebaceous gland grade ± [1]: 3
number of mice with hair follicle and sebaceous gland grade − [1]: 0
Area density of melanocytes (skin melanocytes): 0.005 ± 0.002
Area of melanocytes (skin melanocytes): 372.31 ± 58.32 um2
Average gray level (melanocyte depth) (skin melanocytes): 0.43 ± 0.07
Average optical density (melanocyte depth) (skin melanocytes): 11.23 ± 1.21
Integrated optical density (melanocyte depth) (skin melanocytes): 103.34 ± 9.71
Number density of melanocytes (skin melanocytes): 1.91 ± 0.96
Number of melanocytes (skin melanocytes): 1.93 ± 0.55

CCN1CCC[C@@H](N(C(=O)c2ccc(-n3nnc4cccnc43)cc2)c2ncccc2Cl)C1 [CLY-2, (R)-4-(3H-[1,2,3]triazolo[4,5-b]pyridin-3-yl)-N-(3-chloropyridin-2-yl)-N-(1-ethylpiperidin-3-yl)benzamide]
number of mice with hair follicle and sebaceous gland grade +++ [1]: 0
number of mice with hair follicle and sebaceous gland grade ++ [1]: 0
number of mice with hair follicle and sebaceous gland grade + [1]: 2
number of mice with hair follicle and sebaceous gland grade ± [1]: 4
number of mice with hair follicle and sebaceous gland grade − [1]: 0
Area density of melanocytes (skin melanocytes): 0.004 ± 0.002
Area of melanocytes (skin melanocytes): 366.26 ± 62.15 um2
Average gray level (melanocyte depth) (skin melanocytes): 0.41 ± 0.06
Average optical density (melanocyte depth) (skin melanocytes): 10.68 ± 1.18
Integrated optical density (melanocyte depth) (skin melanocytes): 106.96 ± 9.84
Number density of melanocytes (skin melanocytes): 1.88 ± 1.34
Number of melanocytes (skin melanocytes): 1.75 ± 0.53

CNC1CCCC(N(C(=O)c2ccc(-n3nnc4cccnc43)cc2)c2ncccc2Cl)C1 (stereo not drawn) [CLY-3]
number of mice with hair follicle and sebaceous gland grade +++ [1]: 0
number of mice with hair follicle and sebaceous gland grade ++ [1]: 2
number of mice with hair follicle and sebaceous gland grade + [1]: 1
number of mice with hair follicle and sebaceous gland grade ± [1]: 3
number of mice with hair follicle and sebaceous gland grade − [1]: 0
Area density of melanocytes (skin melanocytes): 0.008 ± 0.003
Area of melanocytes (skin melanocytes): 436.32 ± 79.12 um2
Average gray level (melanocyte depth) (skin melanocytes): 0.52 ± 0.08
Average optical density (melanocyte depth) (skin melanocytes): 11.42 ± 1.32
Integrated optical density (melanocyte depth) (skin melanocytes): 95.36 ± 9.86
Number density of melanocytes (skin melanocytes): 2.82 ± 1.25
Number of melanocytes (skin melanocytes): 2.13 ± 0.61

O=C(c1ccc(-n2nnc3cccnc32)cc1)N(c1ncccc1Cl)C1CCCC(O)C1 (stereo not drawn) [CLY-4]
number of mice with hair follicle and sebaceous gland grade +++ [1]: 0
number of mice with hair follicle and sebaceous gland grade ++ [1]: 2
number of mice with hair follicle and sebaceous gland grade + [1]: 2
number of mice with hair follicle and sebaceous gland grade ± [1]: 2
number of mice with hair follicle and sebaceous gland grade − [1]: 0
Area density of melanocytes (skin melanocytes): 0.009 ± 0.003
Area of melanocytes (skin melanocytes): 496.56 ± 86.23 um2
Average gray level (melanocyte depth) (skin melanocytes): 0.58 ± 0.09
Average optical density (melanocyte depth) (skin melanocytes): 11.61 ± 1.38
Integrated optical density (melanocyte depth) (skin melanocytes): 92.45 ± 9.36
Number density of melanocytes (skin melanocytes): 2.95 ± 1.41
Number of melanocytes (skin melanocytes): 2.45 ± 0.67

COC1CCCC(N(C(=O)c2ccc(-n3nnc4cccnc43)cc2)c2ncccc2Cl)C1 (stereo not drawn) [CLY-5]
Area density of melanocytes (skin melanocytes): 0.004 ± 0.001
Area of melanocytes (skin melanocytes): 345.31 ± 56.21 um2
Average gray level (melanocyte depth) (skin melanocytes): 0.40 ± 0.05
Average optical density (melanocyte depth) (skin melanocytes): 10.59 ± 1.13
Integrated optical density (melanocyte depth) (skin melanocytes): 107.06 ± 9.57
Number density of melanocytes (skin melanocytes): 1.75 ± 1.29
Number of melanocytes (skin melanocytes): 1.43 ± 0.32

O=C(c1ccc(-n2nnc3cccnc32)cc1)N(c1ncccc1Cl)[C@@H]1CCNC1 [CLY-8, (R)-4-(3H-[1,2,3]triazolo[4,5-b]pyridin-3-yl)-N-(3-chloropyridin-2-yl)-N-(pyrrolidin-3-yl)benzamide]
number of mice with hair follicle and sebaceous gland grade +++ [1]: 0
number of mice with hair follicle and sebaceous gland grade ++ [1]: 0
number of mice with hair follicle and sebaceous gland grade + [1]: 2
number of mice with hair follicle and sebaceous gland grade ± [1]: 4
number of mice with hair follicle and sebaceous gland grade − [1]: 0
Area density of melanocytes (skin melanocytes): 0.003 ± 0.001
Area of melanocytes (skin melanocytes): 341.26 ± 54.82 um2
Average gray level (melanocyte depth) (skin melanocytes): 0.39 ± 0.04
Average optical density (melanocyte depth) (skin melanocytes): 10.48 ± 1.11
Integrated optical density (melanocyte depth) (skin melanocytes): 103.15 ± 9.52
Number density of melanocytes (skin melanocytes): 1.71 ± 1.26
Number of melanocytes (skin melanocytes): 1.36 ± 0.29

NC1CCCC(N(C(=O)c2ccc(-n3nnc4cccnc43)cc2)c2ncccc2Cl)C1 (stereo not drawn) [CLY-11]
number of mice with hair follicle and sebaceous gland grade +++ [1]: 0
number of mice with hair follicle and sebaceous gland grade ++ [1]: 2
number of mice with hair follicle and sebaceous gland grade + [1]: 1
number of mice with hair follicle and sebaceous gland grade ± [1]: 3
number of mice with hair follicle and sebaceous gland grade − [1]: 0
Area density of melanocytes (skin melanocytes): 0.006 ± 0.002
Area of melanocytes (skin melanocytes): 417.53 ± 73.16 um2
Average gray level (melanocyte depth) (skin melanocytes): 0.46 ± 0.06
Average optical density (melanocyte depth) (skin melanocytes): 11.26 ± 1.22
Integrated optical density (melanocyte depth) (skin melanocytes): 101.38 ± 9.92
Number density of melanocytes (skin melanocytes): 2.16 ± 1.38
Number of melanocytes (skin melanocytes): 1.98 ± 0.56

O=C(c1ccc(-c2ccccc2-c2nnn[nH]2)cc1)N(c1ncccc1Cl)[C@@H]1CCCNC1 [CLY-19]
number of mice with hair follicle and sebaceous gland grade +++ [1]: 0
number of mice with hair follicle and sebaceous gland grade ++ [1]: 1
number of mice with hair follicle and sebaceous gland grade + [1]: 2
number of mice with hair follicle and sebaceous gland grade ± [1]: 3
number of mice with hair follicle and sebaceous gland grade − [1]: 0
Area density of melanocytes (skin melanocytes): 0.006 ± 0.003
Area of melanocytes (skin melanocytes): 405.62 ± 73.45 um2
Average gray level (melanocyte depth) (skin melanocytes): 0.45 ± 0.06
Average optical density (melanocyte depth) (skin melanocytes): 11.28 ± 1.24
Integrated optical density (melanocyte depth) (skin melanocytes): 102.65 ± 9.97
Number density of melanocytes (skin melanocytes): 2.18 ± 1.35
Number of melanocytes (skin melanocytes): 1.95 ± 0.52

Nc1cc(N2CCCCC2)nc(N)[n+]1[O-] [Positive control group, minoxidil, reference compound]
number of mice with hair follicle and sebaceous gland grade +++ [1]: 0
number of mice with hair follicle and sebaceous gland grade ++ [1]: 3
number of mice with hair follicle and sebaceous gland grade + [1]: 1
number of mice with hair follicle and sebaceous gland grade ± [1]: 2
number of mice with hair follicle and sebaceous gland grade − [1]: 0
